Test results published in PubChem BioAssay (NCI).
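Dose response: 5 concentrations. Exposure: 48 h. Format: 96-well plates. Endpoint: linear interpolation; highest concentration if not reached. GI50 is the concentration that inhibits growth by half. TGI denotes the concentration required for complete inhibition of growth.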

Assays:
Test in all cases: NCI anticancer screen, dose series, 48 h
[1] = test system: A549 NSCLC
[2] = test system: ACHN renal
[3] = test system: BT-549 breast
[4] = test system: CAKI-1 renal
[5] = test system: CCRF-CEM leukemia
[6] = test system: COLO 205 colon
[7] = test system: DU-145 prostate
[8] = test system: EKVX NSCLC
[9] = test system: HCT-116 colon
[10] = test system: HCT-15 colon
[11] = test system: HL-60(TB) leukemia
[12] = test system: HOP-62 NSCLC
[13] = test system: HS 578T breast
[14] = test system: HT29 colon
[15] = test system: IGROV1 ovarian
[16] = test system: KM12 colon
[17] = test system: LOX IMVI melanoma
[18] = test system: M14 melanoma
[19] = test system: MALME-3M melanoma
[20] = test system: MCF7 breast
[21] = test system: MDA-MB-435
[22] = test system: MOLT-4 leukemia
[23] = test system: NCI-H460 lung
[24] = test system: NCI-H522 lung
[25] = test system: NCI/ADR-RES ovarian
[26] = test system: OVCAR-3 ovarian
[27] = test system: OVCAR-4 ovarian
[28] = test system: OVCAR-5 ovarian
[29] = test system: OVCAR-8 ovarian
[30] = test system: PC-3 prostate
[31] = test system: SF-268 CNS
[32] = test system: SF-295 CNS
[33] = test system: SF-539 CNS
[34] = test system: SK-MEL-2 melanoma
[35] = test system: SK-MEL-28 melanoma
[36] = test system: SK-OV-3 ovarian
[37] = test system: SN12C renal
[38] = test system: SNB-19 CNS
[39] = test system: SNB-75 CNS
[40] = test system: SR leukemia
[41] = test system: T-47D breast
[42] = test system: TK-10 renal
[43] = test system: U251 CNS
[44] = test system: UACC-257 melanoma
[45] = test system: UACC-62 melanoma
[46] = test system: UO-31 renal
[47] = test system: 786-0 renal
[48] = test system: A498 renal
[49] = test system: HCC-2998 colon
[50] = test system: HOP-92 NSCLC
[51] = test system: K-562 leukemia
[52] = test system: MDA-MB-231 breast
[53] = test system: NCI-H226 lung
[54] = test system: NCI-H23 lung
[55] = test system: RPMI-8226 leukemia
[56] = test system: RXF 393 renal
[57] = test system: SK-MEL-5 melanoma
[58] = test system: SW-620 colon

CN(CCCNC(=O)c1nn(-c2ccccc2)c2c1ccc1ccccc12)CCCNC(=O)c1nn(-c2ccccc2)c2c1ccc1ccccc12
TGI [1]: 2.85 µM
TGI [2]: 3.17 µM
TGI [3]: 3.04 µM
TGI [4]: 2.7 µM
TGI [5]: 0.628 µM
TGI [6]: 3.63 µM
TGI [7]: 3.92 µM
TGI [8]: 3.1 µM
TGI [9]: 3.13 µM
TGI [10]: 3.16 µM
TGI [11]: 3.07 µM
TGI [12]: 3.69 µM
TGI [13]: > 100 µM
TGI [14]: 3.2 µM
TGI [15]: 2.87 µM
TGI [16]: 3.96 µM
TGI [17]: 2.95 µM
TGI [18]: 3.16 µM
TGI [19]: 3.47 µM
TGI [20]: 3.32 µM
TGI [21]: 2.92 µM
TGI [22]: 3.42 µM
TGI [23]: 2.97 µM
TGI [24]: 3.17 µM
TGI [25]: 3.53 µM
TGI [26]: 2.73 µM
TGI [27]: 3.02 µM
TGI [28]: 5.24 µM
TGI [29]: 3.38 µM
TGI [30]: 2.77 µM
TGI [31]: 3.39 µM
TGI [32]: 3.69 µM
TGI [33]: 3.62 µM
TGI [34]: 3.15 µM
TGI [35]: 3.01 µM
TGI [36]: 3.38 µM
TGI [37]: 3.32 µM
TGI [38]: 3.29 µM
TGI [39]: 2.88 µM
TGI [40]: 2.75 µM
TGI [41]: 3.78 µM
TGI [42]: 3.58 µM
TGI [43]: 3.01 µM
TGI [44]: 3.65 µM
TGI [45]: 3.03 µM
TGI [46]: 2.91 µM

[2H]c1nc(C)nc([2H])c1-c1cc(NC[C@@H](C)c2cccc3c(C(=O)NC)ccnc23)ncn1
GI50 [47]: > 100 µM
TGI [47]: > 100 µM
GI50 [48]: > 100 µM
TGI [48]: > 100 µM
GI50 [1]: > 100 µM
TGI [1]: > 100 µM
GI50 [2]: > 100 µM
TGI [2]: > 100 µM
GI50 [3]: > 100 µM
TGI [3]: > 100 µM
GI50 [5]: 65.1 µM
TGI [5]: > 100 µM
GI50 [6]: > 100 µM
TGI [6]: > 100 µM
GI50 [7]: > 100 µM
TGI [7]: > 100 µM
GI50 [8]: > 100 µM
TGI [8]: > 100 µM
GI50 [49]: > 100 µM
TGI [49]: > 100 µM
GI50 [10]: > 100 µM
TGI [10]: > 100 µM
GI50 [11]: > 100 µM
TGI [11]: > 100 µM
GI50 [12]: > 100 µM
TGI [12]: > 100 µM
GI50 [50]: > 100 µM
TGI [50]: > 100 µM
GI50 [13]: > 100 µM
TGI [13]: > 100 µM
GI50 [14]: > 100 µM
TGI [14]: > 100 µM
GI50 [15]: > 100 µM
TGI [15]: > 100 µM
GI50 [51]: 80.6 µM
TGI [51]: > 100 µM
GI50 [16]: > 100 µM
TGI [16]: > 100 µM
GI50 [17]: > 100 µM
TGI [17]: > 100 µM
GI50 [18]: > 100 µM
TGI [18]: > 100 µM
GI50 [19]: > 100 µM
TGI [19]: > 100 µM
GI50 [52]: > 100 µM
TGI [52]: > 100 µM
GI50 [21]: 32.7 µM
TGI [21]: > 100 µM
GI50 [22]: > 100 µM
TGI [22]: > 100 µM
GI50 [53]: > 100 µM
TGI [53]: > 100 µM
GI50 [54]: > 100 µM
TGI [54]: > 100 µM
GI50 [23]: > 100 µM
TGI [23]: > 100 µM
GI50 [24]: 46.4 µM
TGI [24]: > 100 µM
GI50 [25]: > 100 µM
TGI [25]: > 100 µM
GI50 [26]: > 100 µM
TGI [26]: > 100 µM
GI50 [27]: > 100 µM
TGI [27]: > 100 µM
GI50 [28]: > 100 µM
TGI [28]: > 100 µM
GI50 [29]: > 100 µM
TGI [29]: > 100 µM
GI50 [30]: > 100 µM
TGI [30]: > 100 µM
GI50 [55]: 78.5 µM
TGI [55]: > 100 µM
GI50 [56]: > 100 µM
TGI [56]: > 100 µM
GI50 [31]: > 100 µM
TGI [31]: > 100 µM
GI50 [32]: > 100 µM
TGI [32]: > 100 µM
GI50 [33]: > 100 µM
TGI [33]: > 100 µM
GI50 [34]: > 100 µM
TGI [34]: > 100 µM
GI50 [35]: > 100 µM
TGI [35]: > 100 µM
GI50 [57]: 60.1 µM
TGI [57]: > 100 µM
GI50 [36]: > 100 µM
TGI [36]: > 100 µM
GI50 [37]: > 100 µM
TGI [37]: > 100 µM
GI50 [38]: > 100 µM
TGI [38]: > 100 µM
GI50 [39]: > 100 µM
TGI [39]: > 100 µM
GI50 [40]: 63.1 µM
TGI [40]: > 100 µM
GI50 [58]: > 100 µM
TGI [58]: > 100 µM
GI50 [41]: 29 µM
TGI [41]: > 100 µM
GI50 [42]: > 100 µM
TGI [42]: > 100 µM
GI50 [43]: > 100 µM
TGI [43]: > 100 µM
GI50 [44]: > 100 µM
TGI [44]: > 100 µM
GI50 [45]: 90.9 µM
TGI [45]: > 100 µM
GI50 [46]: > 100 µM
TGI [46]: > 100 µM
